From patent publication US9023859B2, “Composition and method for treating or preventing skeletal muscle fibrosis” (State of Israel, Ministry of Agriculture, Agricultural …, priority 2007, dated 2015)

Tests used:
Mdx mice [1] = assay: Collagen content (Sirius red) and collagen α1(I) gene expression (in situ hybridization) in quadriceps and tibialis muscles; format: in vivo; conditions: I.P. 3 μg/mouse every other day, 4 weeks from 5 weeks of age
Method: Mdx mice were treated either with halofuginone by I.P. injection every other day (3 μg/mouse) starting at 5 weeks of age for 4 weeks, or with saline vehicle. C57B mice were used as controls. At the end of the 4 week period, tibialis anterior (fast) and quadriceps (slow) muscles were removed for evaluation of fibrosis by Sirius red staining for collagen content, and by in situ hybridization of collagen α1(I) gene expression.

Mdx mice [2] = assay: Effect on fibrosis (collagen by Sirius red, image analysis) in diaphragm, gastrochnemius and tibialis muscles; format: in vivo; conditions: I.P. 5 μg/mouse every other day; for reduction of collagen levels: diaphragm; for reduction of collagen content: gastrochnemius
Method: Halofuginone was administered by I.P injection to mdx mice (n=7) from 3 weeks of age every other day at a concentration of 5 μg/mouse. The wild type (C57/BL) and mdx mice without halofuginone served as controls. At the age of 7 and 11 weeks the mice were sacrificed and the diaphragm, gastrochnemius and the tibialis were fixed for histology and samples were frozen for further analysis. Sections were stained for collagen by Sirius red and with methyl green as a counter stain. Image analysis using the Image Pro software was performed for statistical evaluation of the effect of halofuginone on collagen content. For the image analysis, images were taken from 3 animals/group and 4 replicates from each animal/tissue. The results are the ratio of red (R) to green color (G).

Mdx mice [3] = assay: Effect on muscle regeneration (diaphragm central nuclei counting); format: in vivo, mouse; conditions: 5 μg or 7.5 μg for 1 or 2 months from 3 weeks of age; dose-dependent
Method: Mdx mice were treated with halofuginone 5 μg or 7.5 μg for 1 or 2 months starting at age of 3 weeks. The untreated mdx mice served as controls. At the end of the experiment, the diaphragms were taken for hematoxyline & eosin staining before central nuclei counting. The results are the mean±SE of 20 photos taken from 3 different mice. Each photo contained approximately 120 fibers

[4] = tested on: myostatin gene expression; assay: Myostatin gene expression in fibrotic liver (preliminary experiments); format: in vivo

O=C(CC1NCCC[C@H]1O)Cn1cnc2cc(Br)c(Cl)cc2c1=O (stereo in doubt) [halofuginone, 7-bromo-6-chloro-3-[3-(3-hydroxy-2-piperidinyl)-2-oxopropyl]-4(3H)-quinazolinone]
increase in amount of collagen fibers in mdx muscles (Mdx mice [1]; Sirius red): almost completely prevented
increase in expression of collagen α1(I) gene in mdx muscles (Mdx mice [1]; in situ hybridization): almost completely prevented
reduction of collagen levels (Mdx mice [2]; 7 weeks of age (4 weeks of treatment)): 25%
reduction of collagen levels (Mdx mice [2]; 11 weeks of age (8 weeks of treatment)): 53%
reduction of collagen content (Mdx mice [2]; 7 weeks of age): 25%
reduction of collagen content (Mdx mice [2]; 11 weeks of age): 33%
effect on collagen content (Mdx mice [2]; tibialis muscle): No effect
number of diaphragm central nuclei (Mdx mice [3]): major reduction
myostatin gene expression [4]: inhibition
